The values below come from ChEMBL document CHEMBL4613212, “Insights of synthetic analogues of anti-leprosy agents” (Bioorg Med Chem, 2019).

Type in all cases: functional
Experiment [1] has as its system Mycobacterium leprae. Briefly: Antimicrobial activity against Mycobacterium leprae assessed as microbial growth at 0.375 ug/ml in presence of 0.05 ug/ml rifabutin measured at 4 weeks (reference value: 147 +/- 19.1%).
In experiment [2] the test system is Mycobacterium leprae. Briefly: Antimicrobial activity against Mycobacterium leprae assessed as microbial growth at 0.375 ug/ml in presence of 0.0062 ug/ml KRM-1648 measured at 4 weeks (reference value: 147 +/- 19.1%).
Experiment [3] deals with Mycobacterium leprae. The experiment in a line: Antimicrobial activity against Mycobacterium leprae assessed as fractional inhibitory concentration index at 0.375 ug/ml in presence of 0.05 ug/ml rifabutin measured at 4 weeks.
Experiment [4] relates to Mycobacterium leprae. The experiment in a line: Antimicrobial activity against Mycobacterium leprae assessed as fractional inhibitory concentration index at 0.375 ug/ml in presence of 0.0125 ug/ml KRM-1648 measured at 4 weeks.
The subject of experiment [5] is Mycobacterium leprae. Briefly: Antimicrobial activity against Mycobacterium leprae assessed as microbial growth at 0.375 ug/ml in presence of 0.025 ug/ml rifabutin measured at 4 weeks (reference value: 147 +/- 19.1%).
In experiment [6] the test system is Mycobacterium leprae. Briefly: Antimicrobial activity against Mycobacterium leprae assessed as microbial growth at 0.375 ug/ml in presence of 0.0125 ug/ml KRM-1648 measured at 4 weeks (reference value: 147 +/- 19.1%).
Experiment [7] deals with Mycobacterium leprae. Briefly: Antimicrobial activity against Mycobacterium leprae assessed as microbial growth at 0.75 ug/ml in presence of 0.1 ug/ml rifampin measured at 4 weeks (reference value: 147 +/- 19.1%).
For experiment [8], the system named is Mycobacterium leprae. The experiment in a line: Antimicrobial activity against Mycobacterium leprae assessed as fractional inhibitory concentration index at 0.75 ug/ml in presence of 0.2 ug/ml rifampin measured at 4 weeks.
Experiment [9] has as its system Mycobacterium leprae. Briefly: Antimicrobial activity against Mycobacterium leprae assessed as microbial growth at 0.75 ug/ml in presence of 0.2 ug/ml rifampin measured at 4 weeks (reference value: 147 +/- 19.1%).
Experiment [10] concerns Mycobacterium leprae. Briefly: Antimicrobial activity against Mycobacterium leprae assessed as microbial growth at 0.0469 ug/ml in presence of 0.0062 ug/ml KRM-1648 measured at 4 weeks (reference value: 147 +/- 19.1%).
Experiment [11] has as its system Mycobacterium leprae. Briefly: Antimicrobial activity against Mycobacterium leprae assessed as microbial growth at 0.0469 ug/ml in presence of 0.0031 ug/ml KRM-1648 measured at 4 weeks (reference value: 147 +/- 19.1%).
For experiment [12], the system named is Mycobacterium leprae. The experiment in a line: Antimicrobial activity against Mycobacterium leprae assessed as microbial growth at 0.0938 ug/ml in presence of 0.1 ug/ml rifampin measured at 4 weeks (reference value: 147 +/- 19.1%).
Experiment [13] deals with Mycobacterium leprae. The experiment in a line: Antimicrobial activity against Mycobacterium leprae assessed as fractional inhibitory concentration index at 0.0938 ug/ml in presence of 0.2 ug/ml rifampin measured at 4 weeks.
The subject of experiment [14] is Mycobacterium leprae. The experiment in a line: Antimicrobial activity against Mycobacterium leprae assessed as fractional inhibitory concentration index at 0.0469 ug/ml in presence of 0.0062 ug/ml KRM-1648 measured at 4 weeks.
In experiment [15] the test system is Mycobacterium leprae. The experiment in a line: Antimicrobial activity against Mycobacterium leprae assessed as microbial growth at 0.0469 ug/ml in presence of 0.05 ug/ml rifabutin measured at 4 weeks (reference value: 147 +/- 19.1%).
In experiment [16] the test system is Mycobacterium leprae. The experiment in a line: Antimicrobial activity against Mycobacterium leprae assessed as microbial growth at 0.0938 ug/ml in presence of 0.2 ug/ml rifampin measured at 4 weeks (reference value: 147 +/- 19.1%).
Experiment [17] concerns Mycobacterium leprae. Briefly: Antimicrobial activity against Mycobacterium leprae assessed as fractional inhibitory concentration index at 0.0469 ug/ml in presence of 0.05 ug/ml rifabutin measured at 4 weeks.
The test system of experiment [18] is Mycobacterium leprae. Briefly: Antimicrobial activity against Mycobacterium leprae assessed as microbial growth at 0.0469 ug/ml in presence of 0.025 ug/ml rifabutin measured at 4 weeks (reference value: 147 +/- 19.1%).
The subject of experiment [19] is Mycobacterium leprae. The experiment in a line: Antimicrobial activity against Mycobacterium leprae assessed as microbial growth at 0.0469 ug/ml in presence of 0.2 ug/ml rifampin measured at 4 weeks (reference value: 147 +/- 19.1%).

On to `CC1COc2c(N3CCN(C)CC3)c(F)cc3c(=O)c(C(=O)O)cn1c23` (centres undefined) [OFLOXACIN], for which the Activity in experiment [1] is 0%; in experiment [2] it was 124%; in [5], 121%; in [6] it was 0%; in experiment [7] it was 72%; in [9], 0%. For the same compound, the “fractional inhibitory concentration index (FICI)” value in [3] is listed as 0.5; in [4] it was 0.5; in experiment [8], 1.
As to `N[C@@H]1CN(c2c(F)cc3c(=O)c(C(=O)O)cn([C@@H]4C[C@@H]4F)c3c2Cl)CC12CC2` [SITAFLOXACIN ANHYDROUS], the Activity turned out to be 0% in [10]; 89% in experiment [11]; 124% in [12]; 0% in experiment [15]; 0% in [16]; 141% in [18]. Moreover, in experiment [19], the Activity was 138%. Also, the entries for the “fractional inhibitory concentration index (FICI)” value in experiment [13], in experiment [14] and in experiment [17] were 1, 0.375 and 0.5, respectively.
